The text below walks through data of patent US9061023B2, “Management and treatment of benign prostatic hyperplasia” (CSIR, priority 2007, dated 2015).

A short description of data set [1]: DPPH antioxidant screen (radical scavenging capacity). As for the experimental part:
The antioxidant assay was based on the DPPH assay. DPPH is a radical and when a compound with radical scavenging properties reacts with DPPH, the purple colour disappears and a yellow colour is observed. The decolourisation of a purple colour to a yellow colour is measured by a chromameter. The intensity of the yellow colour gives an indication of antioxidant activity. […] The antioxidant activity was expressed as percentage radical scavenging capacity (RSC). […] This evaluation was carried out at the CSIR, Biosciences, Bioprospecting Platform. The 1,1-diphenyl-2-picrylhydrazyl (DPPH) assay was used to investigate the scavenging properties of extracts and pure compounds. […] This is quantified by the decrease of absorbance at wavelength 515 nm in the spectrophotometer. DPPH(purple)+([…](yellow)+(A·)n^26 Since this was a colorimetric test, the appearance of the yellow colour was measured using a chromameter. The final appearance of a more intense yellow colour was used as a good indication of a radical scavenging ability of the extract or compound and this is directly proportional to its antioxidant activity. The antioxidant activity was directly related to the total amount of phenolics and flavonoids present in that particular extract. This method was sensitive enough to indicate and monitor the presence of phenolic-type compounds. […] Spots with good radical scavenging properties turned yellow and the intensity was measured by a chromameter^5. […] The activity of the compound or extract was measured against the reference compound, epigallocatechin gallate.
For orientation: DPPH is a stable violet radical that fades when it is reduced.

For data set [2], the target named is steroid 5α-reductase enzyme (Rattus norvegicus (Rat), UniProt P24008). The data set is described as follows: In vitro steroid 5α-reductase assay (testosterone EIA). Particulars: for IC50: reference compound data. It is filed as biochemical, Wistar rats. As for the experimental part:
In vitro biological assays of the extracts, compounds and mixtures of compounds were undertaken to determine their inhibition of the enzyme 5α-reductase. The efficacy of each isolated compound as well as the crude spray-dried extract was expressed as percentage inhibitory activity and these compounds were tested at different concentrations.
The inhibitory effect of the crude extract, the isolated compounds and a mixture of the compounds on the steroid 5α-reductase was investigated and the results are given in Table 2.
This work was performed at the MDS Pharma Services, Pharmacology Laboratories, Taiwan. The assay was an in vitro evaluation of the ability of an extract or a pure compound to inhibit the steroid 5α-reductase enzyme from metabolizing testosterone into dihydrotestosterone. This is an enzyme-immunoassay (EIA) for quantitative determination of testosterone in human serum or plasma. The significance of this type of inhibition is that it can lead to eradication of benign prostatic hyperplasia (BPH). Two distinct isozymes are found in mice, rats, monkeys and humans: type 1 and II. Each of these isozymes is differentially expressed in tissues and developmental stages. In human, type 1 steroid 5α-reductase is predominant in the sebaceous glands of most regions of skin, including scalp and liver and is responsible for approximately one third of circulating DHT. Inhibitors of steroid 5α-reductase may be of benefit in the treatment of androgenetic alopecia. This is a specific binding assay whereby the biochemical assay results were expressed as percentage inhibition. Finasteride was used as a reference compound in all experiments.
The method employed was adapted from the scientific literature to maximize reliability and reproducibility^25. The steroid 5α-reductase enzyme was isolated from the liver of Wistar rats. The test compound was incubated with 20 μg/mL of steroid 5α-reductase preparation which contains 1 μM testosterone and 50 μM NADPH in DTT buffer, pH 6.5 for 30 minutes at 37° C. The reaction was stopped by addition of 1N HCl and neutralized by 1N NaOH and testosterone was quantified using a testosterone EIA Kit. Compounds were screened at 10 μM.

Data set [3] deals with steroid 5α-reductase enzyme. The settings on record: reported in literature (ref 18); cited from earlier work.
For a further data set, the system named is 5α-reductase. The settings on record: men with smaller prostates, background; cited from earlier work.

The term % inhibition denotes the share of the control response that was lost under treatment. For orientation: inhibition means the change of the read-out against control, counted positive when it falls. The IC50 is the concentration needed to halve the response being measured.

steroid 5α-reductase enzyme (Rattus norvegicus (Rat), UniProt P24008), sequence (P24008 whole entry): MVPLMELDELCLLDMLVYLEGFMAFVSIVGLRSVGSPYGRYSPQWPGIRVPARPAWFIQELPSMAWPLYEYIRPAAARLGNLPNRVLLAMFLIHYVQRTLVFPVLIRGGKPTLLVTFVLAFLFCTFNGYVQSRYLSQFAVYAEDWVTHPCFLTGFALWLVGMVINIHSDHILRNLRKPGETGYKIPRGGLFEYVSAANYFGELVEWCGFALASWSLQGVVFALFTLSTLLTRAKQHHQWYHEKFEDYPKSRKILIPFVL

With `O=C(O[C@@H]1Cc2c(O)cc(O)cc2O[C@@H]1c1cc(O)c(O)c(O)c1)c1cc(O)c(O)c(O)c1` [Epigallocatechin gallate, reference compound], the “% RSC” value amounted to 8% in data set [1] (0.01 ppm); 8% in data set [1] (0.1 ppm); 61% in data set [1] (1 ppm); 95% in data set [1] (10 ppm); 95% in data set [1] (100 ppm).
Take `O=C1c2c(O)cc(O)cc2O[C@H](c2ccc(O)c(O[C@@H]3O[C@H](CO)[C@@H](O)[C@H](O)[C@H]3O)c2)[C@H]1O` [Compound (5), (2R,3R)-,2-[3-(β-D-glucopyranosyloxy)-4-hydroxy-phenyl]-2,3-dihydro-3,5,7-trihydroxy-,4H-1-benzo-pyran-4-one]: the “% inhibition” value in data set [2] (test concentration 1 μM) was 3%. Further, the “% RSC” value in data set [1] (6.25 ppm) was 10%; in data set [1] (12.5 ppm), 8%; in data set [1] (25 ppm) it was 10%; in data set [1] (50 ppm), 13%; in data set [1] (100 ppm) it was 21%.
Turning to `O=C(O)c1cc(O)c(O)c(O)c1` [Compound (1), 3,4,5-Trihydroxybenzoic acid], the “effect against the steroid 5α-reductase enzyme in words” value in data set [3] is “ineffective”.
Regarding `O=c1c(O)c(-c2ccc(O)c(OC3OC(CO)C(O)C(O)C3O)c2)oc2cc(O)cc(O)c12` (centres unmarked) [Compound (3), 3,5,7-Trihydroxy-2-[4-hydroxy-3-(3,4,5-trihydroxy-6-hydroxymethyltetrahydropyran-2-yloxy)-phenyl]-chromen-4-one], the inhibition at 1 µM in data set [2] (test concentration 1 μM) is -9%. In addition, the “% RSC” value in data set [1] (6.25 ppm) was 41%; in data set [1] (12.5 ppm) it was 77%; in data set [1] (25 ppm) it was 95%; in data set [1] (50 ppm), 95%; in data set [1] (100 ppm) it was 95%.
With `CCCCC/C=C\C/C=C\C/C=C\CCCCC(=O)O` [γ-Linolenic acid, reference compound], in data set [2], the IC50 stood at 14 µM.
With `COC(=O)c1cc(O)c(O)c(O)c1` [Compound (2), 3,4,5-Trihydroxybenzoic acid methyl ester], the “effect against the steroid 5α-reductase enzyme in words” value in data set [3] is given as “ineffective”.
On to `O=C(OC1Cc2c(O)cc(O)cc2OC1c1cc(O)cc(O)c1)c1cc(O)c(O)c(O)c1` (centres unmarked) [Compound (4), 3,4,5-Trihydroxybenzoic acid 2-(3,5-dihydroxy-phenyl)-5,7-dihydroxy-chroman-3-yl ester], for which, in data set [2] (test concentration 1 μM), the inhibition at 1 µM is -2%.
Compound `CC(C)(C)NC(=O)[C@H]1CC[C@H]2[C@@H]3CC[C@H]4NC(=O)C=C[C@]4(C)[C@H]3CC[C@]12C` [Finasteride] gave an IC50 in data set [2] of 0.025 µM. Also, the inhibition at 0.025 µM in data set [2] (test concentration 0.025 μM) amounted to 50%. Moreover, in the data set with 5α-reductase, the “reduction in erection rate” value is reported as “up to 8%”, the “reduction in semen volume” value is 4% and the “reduction in sex drive” value is recorded as 6%.
